Results on two molecules are retold here after patent US20250276007A1, “CARBAMOYLPHENYLBORONIC ACID-CONTAINING ACRYLIC MONOMERS AND USES THEREOF” (Alcon Inc., priority 2024, published 2025).

Each structure is given as a SMILES string. Where two headings read alike, the source gives them in different places.

This data set can be described thus: pKa of boronic acid monomer. The data set is classed as physicochemical. Conditions: monomer forming the repeating units of the copolymer.

As a reminder, the pKa is the pH at which an ionisable group is half protonated. `C=CC(=O)Nc1cccc(B(O)O)c1` [APBA, 3-(acrylamido)phenylboronic acid]: the pKa (read-out: pKa) is ~8.1.
For `C=CC(=O)NCCNC(=O)c1ccc(B(O)O)cc1Cl` [CPBA], the pKa entry was “about 7.2”.
